In the supplement of paper PMC10132981, “Formate overflow drives toxic folate trapping in MTHFD1 inhibited cancer cells” (Nature Metabolism, 2023):
± gives the standard deviation of the averaged measurements.

Key:
SW620 [1] = assay: cell viability relative to lowest-dose well (resazurin, 96 h); higher = more viable; details: RPMI + 10% FBS
Procedure, shortened: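 Compounds from 10 mM DMSO stocks were dispensed as dilution series onto HCT116 (500 cells/well) or SW620 (1,000 cells/well) cells growing in 384-well plates in 50 µl RPMI, 10% FBS and a metabolite supplement. Plates were incubated 96 h at 37 °C, 5% CO2, then resazurin (10 µg ml^−1) was added and its conversion to resorufin read by fluorescence at 595 nm after 5 h. Viability is shown as percent of the lowest-dose well for independent replicate cultures. Viability was read by resazurin-to-resorufin conversion and normalised to the lowest-dose vehicle well (=100%).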

HCT116 = assay: EC50 for viability (resazurin, 96 h); details: RPMI+GlutaMAX (10% FBS, 1% P/S)
SW620 [2] = assay: EC50 for viability (resazurin, 96 h); details: RPMI+GlutaMAX (10% FBS, 1% P/S)

O=c1[nH]cc(F)c(=O)[nH]1 [5-fluorouracil]
cell viability [%], SW620 [1]
Details	metabolite supplement: 50uM thymidine	metabolite supplement: 50uM thymidine + 250uM hypoxanthine	metabolite supplement: 250uM hypoxanthine	metabolite supplement: vehicle
0.0001 M	6.17 ± 2	8.1 ± 2	8.23 ± 1.1	7.07 ± 1.6
0.001 µM	100	100	100	100
0.01 µM	103 ± 1.4	99.7 ± 6.2	103 ± 7.5	104 ± 6.5
0.0278 µM	99.6 ± 8.1	99.4 ± 5.3	102 ± 4.7	101 ± 4.7
0.0774 µM	97.9 ± 8.6	101 ± 6.5	98 ± 4.4	102 ± 2.7
0.215 µM	94.8 ± 7.6	99.9 ± 5	99.2 ± 3.9	100 ± 5.6
0.599 µM	93.3 ± 9.7	97.1 ± 8.2	101 ± 3.2	99.9 ± 3.1
1.67 µM	77.5 ± 11	87.9 ± 9.5	92 ± 6	84.1 ± 7.5
4.64 µM	52.2 ± 12	65.6 ± 10	66.7 ± 5	56.8 ± 10
12.9 µM	26.5 ± 8.4	37 ± 7.4	38.5 ± 5.5	30.8 ± 7.9
35.9 µM	11.9 ± 4.2	16 ± 4	16.8 ± 2.9	13.2 ± 4.2

EC50 for viability [µM]
Details	metabolite supplement: Folic acid	metabolite supplement: Folinic acid	metabolite supplement: Hypoxanthine	metabolite supplement: Thymidine	metabolite supplement: Thymidine + Folic acid	metabolite supplement: Thymidine + Folinic acid	metabolite supplement: Thymidine + Hypoxanthine	metabolite supplement: Vehicle
HCT116	–	–	3.08	2.22	–	–	3.29	–
SW620 [2]	4.72	4.28	7.63	4.39 ± 0.33	4.5	4.32	7.42	5.04 ± 0.38
